Measurements taken from patent US20240262826A1, “WILD TYPE KIT INHIBITORS” (Blueprint Medicines Corporation, priority 2022, published 2024).

What was measured:
wild type c-kit = wild type c-kit (Homo sapiens (Human), UniProt P10721); test: PathScan phospho c-kit (Tyr719) sandwich ELISA in SCF-stimulated M-07e cells (pKIT assay); format: cell-based; conditions: ELISA assay (values not marked *)
How it was run: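 Tyr719-phosphorylated c-kit was measured by colorimetric (TMB) sandwich ELISA in lysates of M-07e cells. Cells were starved 4 h without serum or GM-CSF, dosed 60 min at 37 °C with compound (8 points, duplicate, 0.25% DMSO), and stimulated 10 min with human SCF (500 ng/mL as added). IC50 values came from 4-parameter logistic regression.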

[1] = target: human P-glycoprotein (P-gp, MDR1) (Homo sapiens (Human), UniProt P08183); test: MDCK-MDR1 cell monolayer drug transport assay (P-gp efflux ratio); format: in vitro ADME; conditions: pH 7.4, MDCK-MDR1 cells; for efflux ratio at 2 h, 0.1 µM: 0.1 uM concentration of compound (denoted by **), read-out: Pgp Efflux Ratio; for efflux ratio at 2 h, 1 µM: 1 uM concentration of compound, read-out: Pgp Efflux Ratio, 1 uM
Chain of human P-glycoprotein (P-gp, MDR1) (P08183 whole entry): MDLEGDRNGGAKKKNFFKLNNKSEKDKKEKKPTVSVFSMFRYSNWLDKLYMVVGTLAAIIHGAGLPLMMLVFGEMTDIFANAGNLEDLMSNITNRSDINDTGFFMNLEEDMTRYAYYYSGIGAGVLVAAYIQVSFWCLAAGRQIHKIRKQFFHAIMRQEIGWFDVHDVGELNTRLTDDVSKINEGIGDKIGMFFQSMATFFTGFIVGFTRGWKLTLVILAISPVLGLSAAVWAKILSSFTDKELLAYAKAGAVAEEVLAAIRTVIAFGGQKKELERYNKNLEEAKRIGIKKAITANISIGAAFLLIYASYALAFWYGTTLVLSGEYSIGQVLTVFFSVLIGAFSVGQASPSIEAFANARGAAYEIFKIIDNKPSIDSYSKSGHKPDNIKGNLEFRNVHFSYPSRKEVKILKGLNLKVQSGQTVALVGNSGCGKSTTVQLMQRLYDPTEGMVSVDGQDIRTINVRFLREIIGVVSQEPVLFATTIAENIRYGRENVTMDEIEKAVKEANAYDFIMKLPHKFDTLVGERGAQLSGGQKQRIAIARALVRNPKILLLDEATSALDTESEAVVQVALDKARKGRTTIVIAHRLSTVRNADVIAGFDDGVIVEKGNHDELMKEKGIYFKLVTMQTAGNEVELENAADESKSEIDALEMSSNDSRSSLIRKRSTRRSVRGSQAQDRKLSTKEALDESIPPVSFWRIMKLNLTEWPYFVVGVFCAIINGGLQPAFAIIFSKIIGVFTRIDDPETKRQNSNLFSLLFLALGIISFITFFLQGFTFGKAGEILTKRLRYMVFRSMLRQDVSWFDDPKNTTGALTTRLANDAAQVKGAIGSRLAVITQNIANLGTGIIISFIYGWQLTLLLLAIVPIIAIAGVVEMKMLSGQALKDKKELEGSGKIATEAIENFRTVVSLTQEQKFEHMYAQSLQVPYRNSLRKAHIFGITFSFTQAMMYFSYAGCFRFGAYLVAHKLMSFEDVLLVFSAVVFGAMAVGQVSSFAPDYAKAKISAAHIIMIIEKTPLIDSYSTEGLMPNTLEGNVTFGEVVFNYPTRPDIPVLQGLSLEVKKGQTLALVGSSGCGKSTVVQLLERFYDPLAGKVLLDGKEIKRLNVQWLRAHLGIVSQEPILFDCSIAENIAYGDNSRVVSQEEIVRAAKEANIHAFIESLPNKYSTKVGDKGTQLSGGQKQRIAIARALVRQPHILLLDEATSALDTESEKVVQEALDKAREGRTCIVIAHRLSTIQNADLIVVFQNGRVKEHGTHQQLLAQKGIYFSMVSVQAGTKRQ
Method: The potential for compounds prepared according to the examples to be substrates of P-gp was evaluated using in vitro on Multidrug Resistance Mutation 1-Mardin-Darby Canine Kidney (MDCK-MDR1)) (Mardin-Darby Canine Kidney) cell monolayers overexpressing P-gp grown on permeable supports.
Preparation for cell seeding: MDCK-MDR1 cell culture medium consisting of Dulbecco's Modified Eagle's Medium (DMEM) with high glucose and L-glutamine supplemented with: 10% FBS, 0.1 mg/mL of streptomycin, 0.6 μg/mL of Kanamycin sulfate and 100 units of penicillin was prepared. 50 μL of culture medium was added to each well of the Transwell insert. The Transwell insert was removed from the reservoir and 25 mL of culture medium was added. After incubation at 37° C., 5% CO2 for 1 hour, the plates were ready for cell seeding. The cells were cultivated in T-75 flasks in a cell culture incubator set at 37° C., 5% CO2, 95% relative humidity until they reached 80-90% confluence before detaching and splitting. The cultivated cells were rinsed in T-75 flasks with 5 mL PBS and aspirated off, and then 1.5 mL trypsin/EDTA was added and incubated at 37° C. for approximately 5 to 10 minutes or until the cells detach and float. The trypsin/EDTA was inactived by adding excess serum containing medium. The cell suspension was transferred to a conical tube and the cells pelleted by centrifugation at 120×g for 10 minutes. The cells were resuspended in seeding medium at a density of 1.56×10^6 cells/mL. This cell concentration was used to seed 5.45×10^5 cells/cm^2.
Seeding and feeding of MDCK-MDR1 cells into transwell plates: 50 μL of the above cell suspension was added to each well of a previously prepared Transwell plate and the plate was incubated for 4-8 days, replacing the medium every other day beginning no sooner than 48 hours after initial plating. The medium must be replaced on the day before conducting the experiment, and the procedure for medium changes was carried out as follows. The plate was removed from the incubator and placed in a hood. The medium was aspirated from a reservoir and each Transwell was inserted. 100 μL of culture medium was added to each well of the Transwell inserts and 25 mL of culture medium to reservoir tray. The plate was returned to the incubator.
Assessment of cell monolayer integrity: When the 4-day cultured MDCK-MDR1 cells reached confluence and were differentiated, the medium was removed from the reservoir and Transwell inserts. 100 μL of prewarmed culture medium was added to each transwell insert and 25 mL was added to the reservoir tray. The electrical resistance across the monolayer was measured using a Millicell Epithelial Volt-Ohm measuring system. The electrical resistance for each well was measured and then the plate was returned to the incubator. TEER values were calculated using this formula: TEER measurement (ohms)×Area of membrane (cm2)=TEER value (ohm cm2). Any monolayer with a TEER value <42 ohms·cm2, indicating poor monolayer formation, was discarded.
Performing the drug transport assay: The MDCK-MDR1 plate was removed from the incubator and the monolayer was washed, exchanging the volume two times using pre-warmed HBSS (Hank's balanced salt solution) (10 mM HEPES, pH 7.4). The plate was then incubated at 37° C. for 30 minutes. A 1 μM compound working solution was prepared as follows: Added […] of stock solution (10 mM in DMSO) of test compound and control compounds (Metoprolol, Prazosin and Imatinib) in one 96 well plate, then added 98 μL of DMSO into the same well to obtain 0.2 mM stock solutions (note a stock solution was further diluted 1:10 for eventually making a 0.1 uM compound working solution). Transfered 3 μL of 0.2 mM solution into 597 μL of transport buffer in one 96 well plate to prepare the 1 μM compound working solution. The plate was shaken at 1000 rpm for 10 min.

Chain of wild type c-kit (P10721 26-976): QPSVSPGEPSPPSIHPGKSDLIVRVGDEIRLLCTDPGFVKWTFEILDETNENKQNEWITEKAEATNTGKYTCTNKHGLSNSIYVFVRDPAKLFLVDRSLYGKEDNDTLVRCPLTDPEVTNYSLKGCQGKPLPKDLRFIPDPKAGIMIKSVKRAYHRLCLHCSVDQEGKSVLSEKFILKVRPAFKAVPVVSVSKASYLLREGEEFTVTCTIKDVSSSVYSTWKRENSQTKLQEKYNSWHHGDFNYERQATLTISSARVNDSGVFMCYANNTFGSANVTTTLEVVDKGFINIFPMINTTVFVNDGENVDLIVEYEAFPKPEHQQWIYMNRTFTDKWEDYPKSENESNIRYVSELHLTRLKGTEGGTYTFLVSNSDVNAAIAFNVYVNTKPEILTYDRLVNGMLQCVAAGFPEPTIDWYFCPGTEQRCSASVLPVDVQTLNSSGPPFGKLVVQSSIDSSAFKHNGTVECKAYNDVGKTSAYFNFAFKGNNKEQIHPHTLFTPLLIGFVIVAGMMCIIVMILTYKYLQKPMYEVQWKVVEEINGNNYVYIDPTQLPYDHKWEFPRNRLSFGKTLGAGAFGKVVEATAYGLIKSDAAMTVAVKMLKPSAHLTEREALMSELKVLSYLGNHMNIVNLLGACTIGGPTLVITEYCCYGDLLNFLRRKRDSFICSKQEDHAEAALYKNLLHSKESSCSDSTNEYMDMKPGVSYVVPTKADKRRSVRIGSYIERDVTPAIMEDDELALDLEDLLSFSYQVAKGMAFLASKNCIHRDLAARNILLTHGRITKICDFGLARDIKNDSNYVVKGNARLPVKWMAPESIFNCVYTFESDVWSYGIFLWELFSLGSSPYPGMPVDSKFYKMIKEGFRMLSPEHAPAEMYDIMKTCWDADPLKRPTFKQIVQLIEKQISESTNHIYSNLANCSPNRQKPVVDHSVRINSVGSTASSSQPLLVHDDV

| Structure (SMILES) | IC50 (wild type c-kit) [nM] | efflux ratio at 2 h, 0.1 µM [1] | efflux ratio at 2 h, 1 µM [1] |
| --- | --- | --- | --- |
| Cc1cc(F)c(-c2nnn(C3CC3)n2)cc1NC(=O)c1cnn2ccc(-c3cn(CC(C)(C)O)nc3C3CC3)cc12 [Example 241, 5-(3-cyclopropyl-1-(2-hydroxy-2-methylpropyl)-1H-pyrazol-4-yl)-N-(5-(2-cyclopropyl-2H-tetrazol-5-yl)-4-fluoro-2-methylphenyl)pyrazolo[1,5-a]pyridine-3-carboxamide] | 0.2 | 6.3 |  |
| COC(=O)N1CC(c2cnn(-c3ccc(C)c(NC(=O)c4cnn5ccc(NCC(F)F)cc45)c3)n2)C1 [Example 139, methyl 3-(2-(3-(5-((2,2-difluoroethyl)amino)pyrazolo[1,5-a]pyridine-3-carboxamido)-4-methylphenyl)-2H-1,2,3-triazol-4-yl)azetidine-1-carboxylate] | 26.3 |  | 18.9 |
| COCCNc1ccn2ncc(C(=O)Nc3cc(-c4nnn([C@H]5C[C@H](CO)C5)n4)c(F)cc3C)c2c1 [Example 202, N-(4-fluoro-5-(2-((1r,3r)-3-(hydroxymethyl)cyclobutyl)-2H-tetrazol-5-yl)-2-methylphenyl)-5-((2-methoxyethyl)amino)pyrazolo[1,5-a]pyridine-3-carboxamide] | 14.8 |  | 19.1 |
| Cc1cnn(-c2ccc(C)c(NC(=O)c3cnn4ccc(-c5cnn(C[C@@H]6CNCCO6)c5)cc34)c2)n1 [Example 204, (S)—N-(2-methyl-5-(4-methyl-2H-1,2,3-triazol-2-yl)phenyl)-5-(1-(morpholin-2-ylmethyl)-1H-pyrazol-4-yl)pyrazolo[1,5-a]pyridine-3-carboxamide] | 10.1 |  | 62.1 |
| Cc1ccc(-c2nnn(C3CC(F)(F)C3)n2)cc1NC(=O)c1cnn2ccc(N3CC[C@@H](O)C3)cc12 [Example 78, (R)-N-(5-(2-(3,3-difluorocyclobutyl)-2H-tetrazol-5-yl)-2-methylphenyl)-5-(3-hydroxypyrrolidin-1-yl)pyrazolo[1,5-a]pyridine-3-carboxamide] | 9.6 |  | 13.1 |
| Cc1nn(CCO)cc1-c1ccn2ncc(C(=O)Nc3cc(-c4nnn(C5CC5)n4)ccc3Cl)c2c1 [Example 238, N-[2-chloro-5-(2-cyclopropyl-2H-1,2,3,4-tetrazol-5-yl)phenyl]-5-[1-(2-hydroxyethyl)-3-methyl-1H-pyrazol-4-yl]pyrazolo[1,5-a]pyridine-3-carboxamide] | 0.2 | 5.9 |  |
| COC(=O)N1CC(n2nnc(-c3ccc(C)c(NC(=O)c4cnn5ccc(N6CC[C@H]6CO)cc45)c3)n2)C1 [Example 90, methyl (S)-3-(5-(3-(5-(2-(hydroxymethyl)azetidin-1-yl)pyrazolo[1,5-a]pyridine-3-carboxamido)-4-methylphenyl)-2H-tetrazol-2-yl)azetidine-1-carboxylate] | 87.7 |  | 33.9 |
| Cc1ccc(-c2nnn(C)n2)cc1NC(=O)c1cnn2ccc(-c3cnn(C[C@@H](C)O)c3)cc12 (mixture of isomers) [Example 53, (R)-5-(1-(2-hydroxypropyl)-1H-pyrazol-4-yl)-N-(2-methyl-5-(2-methyl-2H-tetrazol-5-yl)phenyl)pyrazolo[1,5-a]pyridine-3-carboxamide and (S)-5-(1-(2-hydroxypropyl)-1H-pyrazol-4-yl)-N-(2-methyl-5-(2-methyl-2H-tetrazol-5-yl)phenyl)pyrazolo[1,5-a]pyridine-3-carboxamide] | 1.5 |  | 10.9 |
| CCOC(=O)N1CC(n2nnc(-c3ccc(C)c(NC(=O)c4cnn5ccc(NCCOC)cc45)c3)n2)C1 [Example 149, ethyl 3-(5-(3-(5-((2-methoxyethyl)amino)pyrazolo[1,5-a]pyridine-3-carboxamido)-4-methylphenyl)-2H-tetrazol-2-yl)azetidine-1-carboxylate] | 38.6 |  | 30.1 |
| Cc1cc(Cl)c(NC(=O)c2cnn3ccc(-c4cnn(CC(C)(C)O)c4)cc23)cc1-c1nnn(C2CC2)n1 [Example 227, N-(2-chloro-5-(2-cyclopropyl-2H-tetrazol-5-yl)-4-methylphenyl)-5-(1-(2-hydroxy-2-methylpropyl)-1H-pyrazol-4-yl)pyrazolo[1,5-a]pyridine-3-carboxamide] | 1.9 | 5 |  |
| COC(=O)N1CC(n2nnc(-c3ccc(C)c(NC(=O)c4cnn5ccc(NCC(C)(C)OC)cc45)c3)n2)C1 [Example 96, methyl 3-(5-(3-(5-((2-methoxy-2-methylpropyl)amino)pyrazolo[1,5-a]pyridine-3-carboxamido)-4-methylphenyl)-2H-tetrazol-2-yl)azetidine-1-carboxylate] | 37.1 |  | 9.5 |
| Cc1cc(Cl)c(NC(=O)c2cnn3ccc(-c4cn(CC5(O)CCOCC5)nc4C)cc23)cc1-c1nnn(C2CC2)n1 [Example 235, N-(2-chloro-5-(2-cyclopropyl-2H-tetrazol-5-yl)-4-methylphenyl)-5-(1-((4-hydroxytetrahydro-2H-pyran-4-yl)methyl)-3-methyl-1H-pyrazol-4-yl)pyrazolo[1,5-a]pyridine-3-carboxamide] | 1.6 |  | 3.9 |
| COCCNc1cc2c(C(=O)Nc3cc(-c4nnn(C5CN(C(=O)OC)C5)n4)ccc3C)cnn2cc1Cl [Example 145, methyl 3-(5-(3-(6-chloro-5-((2-methoxyethyl)amino)pyrazolo[1,5-a]pyridine-3-carboxamido)-4-methylphenyl)-2H-tetrazol-2-yl)azetidine-1-carboxylate] | 157 |  | 6.4 |
| COCCNc1cc2c(C(=O)Nc3cc(-c4nnn(C5CN(C(=O)OC)C5)n4)ccc3C)cnn2cc1F [Example 171, methyl 3-(5-(3-(6-fluoro-5-((2-methoxyethyl)amino)pyrazolo[1,5-a]pyridine-3-carboxamido)-4-methylphenyl)-2H-tetrazol-2-yl)azetidine-1-carboxylate] | 34.3 |  | 6 |
| COC(=O)N1CC(n2nnc(-c3ccc(C)c(NC(=O)c4cnn5ccc(NCC(C)(C)O)cc45)c3)n2)C1 [Example 89, methyl 3-(5-(3-(5-((2-hydroxy-2-methylpropyl)amino)pyrazolo[1,5-a]pyridine-3-carboxamido)-4-methylphenyl)-2H-tetrazol-2-yl)azetidine-1-carboxylate] | 71 |  | 43.1 |
| Cc1ccc(-c2nnn([C@H]3C[C@@H](C(F)(F)F)C3)n2)cc1NC(=O)c1cnn2ccc(NCCO)cc12 [Example 120, 5-((2-hydroxyethyl)amino)-N-(2-methyl-5-(2-((1s,3s)-3-(trifluoromethyl)cyclobutyl)-2H-tetrazol-5-yl)phenyl)pyrazolo[1,5-a]pyridine-3-carboxamide or 5-((2-hydroxyethyl)amino)-N-(2-methyl-5-(2-((1r,3r)-3-(trifluoromethyl)cyclobutyl)-2H-tetrazol-5-yl)phenyl)pyrazolo[1,5-a]pyridine-3-carboxamide] | 4.1 |  | 35.9 |
